Assay results taken from patent US9920057B2, “Substituted pyrazino[1′,2′:1 ,6]pyrido[3,4-b]indoles as phosphodiesterase type 5 inhibitors” (Chongqing University of Arts and Sciences, priority 2015, dated 2018).
Where “and” joins values, the source holds several entries; their conditions need not be identical. Equal entries are not always repeated. Where two headings read alike, the source gives them in different places.

Experiments:
[1] = target: T1, PDE5A (Homo sapiens, UniProt O76074); test: Inhibition against PDE5 (Homogenous Time Resolve Fluoresce); type: biochemical; conditions: HTF
T1 construct: purchased SIGMA-ALDRICH E904
Method: Method: IC50 of an inhibition effect on PDE5A (E904, SIGMA-ALDRICH) of test compounds was tested by using Sildenafil (S1431, selleck) as a positive control sample and the method of Homogenous Time Resolve Fluoresce, HTF (Cat. No. 62GM2PEB, Cisbio.)

[2] = Study on pharmacokinetics in rats, oral administration; type: in vivo, SD rat
Method: Sample Preparation Method: One step protein precipitation
Precipitant: ACN, with concentration of Verapamil (5.00 ng·mL-1)
Calibration Curve and QC samples Preparation: 5.00 μL each of the calibration or QC working solution and 45.0 μL of blank plasma were transferred into a 1.5-mL microcentrifuge tube. Final standard curve concentration levels were 1.00, 2.50, 5.00, 10.0, 50.0, 100, 500 and 1000 ng·mL-1. The QC concentration levels were 2.50 or 5.00, 50.0 and 800 ng·mL-1. Dilution QC was 5000 ng·mL-1.
Plasma Samples Preparation: Aliquots of 10.0 μL of real samples, calibration curve samples and QC samples were supplemented with 100 μL of precipitant. After vortexed for 3.00 min and centrifuged at 12000 rpm for 5.00 min, the supernatant 10 μL was injected for LC-MS/MS analysis.
Number of Rats/Group: 3/group
Administration Route: oral administration
Blood Collection Time: 0 min, 15 min, 30 min, 1 h, 2 h, 4 h, 6 h, 8 h, 24 h

[3] = test system: normal rat; test: Erectile function of normal rat: blood pressure, intracavernous pressure and detumescence time on cavernous nerve stimulation; type: in vivo
Method: Rats were anesthetized with 2% pentobarbital […], then incision was made in the right side of neck, a PE-50 silicon tube connected with a pressure transducer was inserted into the carotid artery, to record the change of the blood pressure.
The erectile activity was induced by a bipolar stainless-steel, stimulus parameters at a pulse width of […], stimulation frequency of 7.98 Hz, current of 3 mA, stimulation duration of 40 s, and then record the intracavernous pressure (ICP).
Assessment of erectile function: ICP, BP, change of ICP and detumescence time were monitored though electric cavernous nerve stimulation at 2, 6 and 24 hours post dosing. Erectile function was evaluated by change of ICP and detumescence time.

[4] = target: T2, PDE11A (Homo sapiens, UniProt Q9HCR9); test: Inhibition of PDE activity (assay kit); type: biochemical
T2 construct: purchased
T2 sequence (Q9HCR9 whole entry): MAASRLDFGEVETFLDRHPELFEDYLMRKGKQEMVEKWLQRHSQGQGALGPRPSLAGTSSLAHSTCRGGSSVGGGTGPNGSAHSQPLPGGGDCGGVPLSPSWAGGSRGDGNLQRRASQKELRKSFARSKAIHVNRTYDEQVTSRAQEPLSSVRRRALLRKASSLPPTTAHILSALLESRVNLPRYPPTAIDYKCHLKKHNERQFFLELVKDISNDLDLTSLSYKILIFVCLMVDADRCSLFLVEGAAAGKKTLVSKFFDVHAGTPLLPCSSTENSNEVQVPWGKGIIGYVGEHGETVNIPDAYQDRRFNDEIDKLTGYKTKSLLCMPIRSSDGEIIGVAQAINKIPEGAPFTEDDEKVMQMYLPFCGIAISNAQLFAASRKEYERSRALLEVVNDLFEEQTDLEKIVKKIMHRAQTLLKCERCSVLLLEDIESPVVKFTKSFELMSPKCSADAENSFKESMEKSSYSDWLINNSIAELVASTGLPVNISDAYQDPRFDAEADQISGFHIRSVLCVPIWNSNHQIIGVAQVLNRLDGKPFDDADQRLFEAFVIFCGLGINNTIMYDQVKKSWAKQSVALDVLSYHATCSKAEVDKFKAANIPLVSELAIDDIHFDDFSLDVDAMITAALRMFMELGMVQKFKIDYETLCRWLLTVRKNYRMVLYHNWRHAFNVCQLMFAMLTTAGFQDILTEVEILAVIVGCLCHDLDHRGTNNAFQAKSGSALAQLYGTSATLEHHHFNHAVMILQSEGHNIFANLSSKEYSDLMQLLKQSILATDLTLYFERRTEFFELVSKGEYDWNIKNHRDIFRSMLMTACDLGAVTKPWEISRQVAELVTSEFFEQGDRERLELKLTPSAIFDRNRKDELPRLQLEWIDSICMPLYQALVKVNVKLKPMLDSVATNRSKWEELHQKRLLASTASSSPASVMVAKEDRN
Method: (§1) i. Supplement 99 μl assay buffer per well, then add 1 μl compound in DMSO dilution to wells of V96 MicroWell Plates and uniformly mix;
(§2) ii. Add 5 μl compound in assay buffer dilution to each well of 96-well microplate;
(§3) the final concentration of compound as below:
(§4) The inhibitory potential of test compounds on several types of phosphodiesterase (PDE) activity is determined according to the protocol of assay kit.

[5] = target: T3, PDE1A (Homo sapiens, UniProt P54750); test: Inhibition of PDE activity (assay kit); type: biochemical
T3 construct: purchased
T3 sequence (P54750 whole entry): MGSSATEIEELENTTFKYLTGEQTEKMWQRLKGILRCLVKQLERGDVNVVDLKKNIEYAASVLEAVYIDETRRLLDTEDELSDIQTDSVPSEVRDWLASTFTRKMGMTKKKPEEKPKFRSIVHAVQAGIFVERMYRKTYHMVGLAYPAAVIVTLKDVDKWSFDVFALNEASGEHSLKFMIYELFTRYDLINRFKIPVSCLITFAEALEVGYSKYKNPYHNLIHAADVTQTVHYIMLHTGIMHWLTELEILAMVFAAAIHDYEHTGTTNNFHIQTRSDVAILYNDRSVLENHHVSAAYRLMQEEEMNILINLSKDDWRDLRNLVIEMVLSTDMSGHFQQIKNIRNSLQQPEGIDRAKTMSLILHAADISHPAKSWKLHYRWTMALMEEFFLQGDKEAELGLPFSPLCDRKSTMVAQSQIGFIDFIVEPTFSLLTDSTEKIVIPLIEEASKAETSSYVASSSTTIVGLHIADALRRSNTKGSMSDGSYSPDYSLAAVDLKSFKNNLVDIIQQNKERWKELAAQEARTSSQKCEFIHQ
Method: as §1, §2, §3, §4

[6] = target: T4, PDE2A (Homo sapiens, UniProt O00408); test: Inhibition of PDE activity (assay kit); type: biochemical
T4 construct: purchased
T4 sequence (O00408 whole entry): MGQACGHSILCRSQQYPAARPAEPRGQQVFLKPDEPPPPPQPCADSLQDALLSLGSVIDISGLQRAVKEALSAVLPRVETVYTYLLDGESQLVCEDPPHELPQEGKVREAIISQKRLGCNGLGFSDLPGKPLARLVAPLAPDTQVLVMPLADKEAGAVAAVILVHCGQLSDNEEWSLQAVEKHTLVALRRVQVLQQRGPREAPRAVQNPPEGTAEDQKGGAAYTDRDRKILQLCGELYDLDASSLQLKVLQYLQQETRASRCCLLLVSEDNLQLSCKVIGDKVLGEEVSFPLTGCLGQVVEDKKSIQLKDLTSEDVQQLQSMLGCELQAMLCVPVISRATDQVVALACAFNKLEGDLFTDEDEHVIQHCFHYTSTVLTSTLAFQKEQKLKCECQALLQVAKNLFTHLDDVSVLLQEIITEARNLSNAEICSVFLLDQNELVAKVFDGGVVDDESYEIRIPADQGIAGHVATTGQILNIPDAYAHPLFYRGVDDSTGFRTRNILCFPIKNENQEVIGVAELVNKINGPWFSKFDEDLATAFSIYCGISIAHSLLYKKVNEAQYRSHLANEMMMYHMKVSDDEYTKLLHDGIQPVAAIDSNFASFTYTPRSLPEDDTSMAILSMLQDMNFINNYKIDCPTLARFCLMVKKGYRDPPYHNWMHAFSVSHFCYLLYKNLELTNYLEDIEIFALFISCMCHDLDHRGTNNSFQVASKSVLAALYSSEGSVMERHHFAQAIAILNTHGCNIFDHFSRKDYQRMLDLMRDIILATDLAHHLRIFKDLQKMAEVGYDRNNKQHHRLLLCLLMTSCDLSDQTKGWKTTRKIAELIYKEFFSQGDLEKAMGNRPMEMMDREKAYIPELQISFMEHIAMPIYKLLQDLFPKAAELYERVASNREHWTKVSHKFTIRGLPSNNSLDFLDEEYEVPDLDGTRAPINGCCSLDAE
Method: as §1, §2, §3, §4

[7] = target: T5, PDE3A (Homo sapiens, UniProt Q14432); test: Inhibition of PDE activity (assay kit); type: biochemical
T5 construct: purchased
T5 sequence (Q14432 whole entry): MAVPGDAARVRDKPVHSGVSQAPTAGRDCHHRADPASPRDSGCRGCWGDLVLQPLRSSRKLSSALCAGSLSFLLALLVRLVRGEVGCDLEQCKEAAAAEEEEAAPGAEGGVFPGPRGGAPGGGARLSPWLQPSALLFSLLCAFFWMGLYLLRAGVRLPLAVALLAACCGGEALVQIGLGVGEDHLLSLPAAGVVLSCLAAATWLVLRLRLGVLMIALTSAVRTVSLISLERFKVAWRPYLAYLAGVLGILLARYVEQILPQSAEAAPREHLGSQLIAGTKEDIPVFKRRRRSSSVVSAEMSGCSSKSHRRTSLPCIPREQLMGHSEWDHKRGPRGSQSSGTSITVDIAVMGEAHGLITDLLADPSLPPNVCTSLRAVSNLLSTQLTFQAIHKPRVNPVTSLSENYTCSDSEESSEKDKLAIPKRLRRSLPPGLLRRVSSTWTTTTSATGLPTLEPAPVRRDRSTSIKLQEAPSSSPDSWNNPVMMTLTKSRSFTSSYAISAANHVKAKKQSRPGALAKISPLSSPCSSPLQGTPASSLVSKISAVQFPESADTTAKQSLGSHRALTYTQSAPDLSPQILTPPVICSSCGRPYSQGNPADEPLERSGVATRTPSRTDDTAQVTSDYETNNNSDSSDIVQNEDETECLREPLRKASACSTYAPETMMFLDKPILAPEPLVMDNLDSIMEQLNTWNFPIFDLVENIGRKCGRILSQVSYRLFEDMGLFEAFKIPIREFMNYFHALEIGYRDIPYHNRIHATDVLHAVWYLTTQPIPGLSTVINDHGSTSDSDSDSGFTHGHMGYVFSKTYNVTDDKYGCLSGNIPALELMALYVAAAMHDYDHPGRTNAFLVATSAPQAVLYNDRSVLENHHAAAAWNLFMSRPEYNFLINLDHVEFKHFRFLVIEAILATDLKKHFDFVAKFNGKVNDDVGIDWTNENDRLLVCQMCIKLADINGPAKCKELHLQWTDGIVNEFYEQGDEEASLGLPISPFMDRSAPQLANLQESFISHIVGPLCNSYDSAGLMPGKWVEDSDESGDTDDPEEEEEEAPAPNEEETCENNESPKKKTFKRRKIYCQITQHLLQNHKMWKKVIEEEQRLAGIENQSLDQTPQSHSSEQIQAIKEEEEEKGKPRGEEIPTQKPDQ
Method: as §1, §2, §3, §4

[8] = target: T6, PDE4A (Homo sapiens, UniProt P27815); test: Inhibition of PDE activity (assay kit); type: biochemical
T6 construct: purchased
T6 sequence (P27815 1-647 isoform P27815-4): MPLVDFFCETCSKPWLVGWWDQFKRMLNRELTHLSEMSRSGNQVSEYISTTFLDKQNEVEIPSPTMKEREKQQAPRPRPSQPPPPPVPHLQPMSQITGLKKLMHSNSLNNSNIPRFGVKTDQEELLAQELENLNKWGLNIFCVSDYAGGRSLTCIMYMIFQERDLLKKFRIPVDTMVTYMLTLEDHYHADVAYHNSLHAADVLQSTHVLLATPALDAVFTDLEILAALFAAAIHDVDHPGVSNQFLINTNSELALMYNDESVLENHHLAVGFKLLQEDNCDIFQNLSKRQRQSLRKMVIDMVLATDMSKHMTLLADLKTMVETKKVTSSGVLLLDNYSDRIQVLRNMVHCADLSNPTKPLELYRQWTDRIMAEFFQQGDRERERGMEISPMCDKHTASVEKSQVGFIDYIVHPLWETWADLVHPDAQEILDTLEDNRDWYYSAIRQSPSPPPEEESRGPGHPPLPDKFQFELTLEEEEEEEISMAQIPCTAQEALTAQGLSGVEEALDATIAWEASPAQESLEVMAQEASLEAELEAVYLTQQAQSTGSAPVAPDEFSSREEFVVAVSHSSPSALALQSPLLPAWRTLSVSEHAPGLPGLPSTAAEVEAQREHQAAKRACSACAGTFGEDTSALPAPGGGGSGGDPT
Method: as §1, §2, §3, §4

[9] = target: T7, PDE6C (Homo sapiens, UniProt P51160); test: Inhibition of PDE activity (assay kit); type: biochemical
T7 construct: purchased
Method: as §1, §2, §3, §4

[10] = target: T8, PDE7A (Homo sapiens, UniProt Q13946); test: Inhibition of PDE activity (assay kit); type: biochemical
T8 construct: purchased
T8 sequence (Q13946 whole entry): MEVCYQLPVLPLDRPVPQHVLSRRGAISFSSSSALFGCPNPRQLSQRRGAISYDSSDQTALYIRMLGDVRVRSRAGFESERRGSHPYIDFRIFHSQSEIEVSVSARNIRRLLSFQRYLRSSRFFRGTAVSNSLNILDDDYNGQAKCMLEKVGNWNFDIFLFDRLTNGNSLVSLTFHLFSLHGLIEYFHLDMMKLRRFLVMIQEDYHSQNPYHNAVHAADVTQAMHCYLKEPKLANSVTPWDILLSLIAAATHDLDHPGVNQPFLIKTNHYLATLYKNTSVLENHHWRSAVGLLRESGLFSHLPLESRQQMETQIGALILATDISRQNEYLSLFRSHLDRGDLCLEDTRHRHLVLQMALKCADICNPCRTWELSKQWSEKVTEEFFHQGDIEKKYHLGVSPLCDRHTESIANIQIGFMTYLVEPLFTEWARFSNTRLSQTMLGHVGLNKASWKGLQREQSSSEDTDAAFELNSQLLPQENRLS
Method: as §1, §2, §3, §4

[11] = Mean of 3 rats, oral 10.0 mg · kg^−1
[12] = individual rats, oral 10.0 mg · kg^−1
[13] = 2 hours after dosing, High dose
[14] = 2 hours after dosing, Middle dose
[15] = 6 hours after dosing, High dose
[16] = 6 hours after dosing, Middle dose
[17] = 24 hours after dosing, High dose
[18] = 24 hours after dosing, Low dose
[19] = 24 hours after dosing, Middle dose

`[2H]C1([2H])Oc2ccc([C@@H]3c4[nH]c5ccccc5c4C[C@@H]4C(=O)N(N)CC(=O)N34)cc2O1` [DDCI-01, (6R,12aR)-2-amino-6-(benzo[d][1,3]dioxol-5-yl-2,2-d2)-2,3,6,7,12,12a-hexahydropyrazino[1′,2′:1,6]pyrido[3,4-b]indole-1,4-dione] showed an IC50 [1] of 0.0336 µM, an AUMC0-inf [2, 11] of 50280 h · h · ng · mL^−1 and an AUMC0-t [2, 11] of 49982 h · h · ng · mL^−1. For the same compound, the Kel [2, 11] was 0.305 h⁻¹, the MRTPO [2, 11] was 4.68 h and the “half-life (T1/2), comparison in words” value ([2]; SD rat, oral, compared with Cialis and DDCI02) was “slightly shorter than that of Cialis and significantly shorter than that of DDCI02”. For the same compound, the half-life ([2]; SD, rat, plasma, po, 10 mg/kg, Mean of 3 rats, oral 10.0 mg · kg^−1) was 2.29 h, the AUC0-inf ([2]; SD, rat, plasma, po, 10 mg/kg, Mean of 3 rats, oral 10.0 mg · kg^−1, read-out: AUC0-inf) was 10800 ng·h/mL and the AUC0-t ([2]; SD, rat, plasma, po, 10 mg/kg, Mean of 3 rats, oral 10.0 mg · kg^−1, read-out: AUC0-t) was 10800 ng·h/mL. The Cmax ([2]; SD, rat, plasma, po, 10 mg/kg, Mean of 3 rats, oral 10.0 mg · kg^−1, read-out: Cmax) was 1470 ng/mL, the half-life ([2]; SD, rat, plasma, po, 10 mg/kg, individual rats, oral 10.0 mg · kg^−1) was 2.12 h and the AUC0-inf ([2]; SD, rat, plasma, po, 10 mg/kg, individual rats, oral 10.0 mg · kg^−1, read-out: AUC0-inf) was 9980 ng·h/mL. For the same compound, the AUC0-t ([2]; SD, rat, plasma, po, 10 mg/kg, individual rats, oral 10.0 mg · kg^−1, read-out: AUC0-t) was 9970 ng·h/mL, the Cmax ([2]; SD, rat, plasma, po, 10 mg/kg, individual rats, oral 10.0 mg · kg^−1, read-out: Cmax) was 1300 ng/mL and the Tmax ([2]; SD, rat, plasma, individual rats, oral 10.0 mg · kg^−1) was 2 h. For the same compound, the AUC0-inf [2, 12] was 11221 ng·h/mL and 11087 ng·h/mL, the AUC0-t [2, 12] was 11202 ng·h/mL and 11080 ng·h/mL and the AUMC0-inf [2, 12] was 48665 h · h · ng · mL^−1 and 51065 h · h · ng · mL^−1 and 51110 h · h · ng · mL^−1. For the same compound, the AUMC0-t [2, 12] was 48497 h · h · ng · mL^−1 and 50539 h · h · ng · mL^−1 and 50911 h · h · ng · mL^−1, the Cmax [2, 12] was 1574 ng/mL and 1528 ng/mL and the Kel [2, 12] was 0.327 h⁻¹ and 0.269 h⁻¹ and 0.319 h⁻¹. The MRTPO [2, 12] was 4.88 h and 4.55 h and 4.61 h, the t1/2 [2, 12] was 2.58 h and 2.17 h and the “Cmax and Auc, comparison in words” value ([2]; rat, oral, compared with Cialis) was “more excellent than those of Cialis”. The BP after stimulation [3, 13] was 60.97 ± 19.95 mmHg, the BP before stimulation [3, 13] was 91.86 ± 21.57 mmHg and the “Change of BP” value [3, 13] was 30.89 ± 4.09 mmHg. For the same compound, the “Change of ICP” value [3, 13] was 41.20 ± 9.83 mmHg, the “Detumescence Time” value [3, 13] was 101.00 ± 21.56 s and the ICP after stimulation [3, 13] was 52.25 ± 9.49 mmHg. It also gave an ICP before stimulation [3, 13] of 11.05 ± 3.25 mmHg, a BP after stimulation ([3]; 2 hours after dosing, Low dose) of 63.89 ± 2.93 mmHg and a BP before stimulation ([3]; 2 hours after dosing, Low dose) of 97.43 ± 11.45 mmHg. The “Change of BP” value ([3]; 2 hours after dosing, Low dose) was 33.54 ± 13.57 mmHg, the “Change of ICP” value ([3]; 2 hours after dosing, Low dose) was 31.38 ± 3.09 mmHg and the “Detumescence Time” value ([3]; 2 hours after dosing, Low dose) was 38.00 ± 10.42 s. The ICP after stimulation ([3]; 2 hours after dosing, Low dose) was 42.86 ± 5.14 mmHg, the ICP before stimulation ([3]; 2 hours after dosing, Low dose) was 11.48 ± 4.57 mmHg and the BP after stimulation [3, 14] was 70.38 ± 7.82 mmHg. The BP before stimulation [3, 14] was 96.49 ± 7.55 mmHg, the “Change of BP” value [3, 14] was 26.12 ± 3.04 mmHg and the “Change of ICP” value [3, 14] was 33.09 ± 7.46 mmHg. For the same compound, the “Detumescence Time” value [3, 14] was 40.75 ± 4.79 s, the ICP after stimulation [3, 14] was 41.58 ± 7.94 mmHg and the ICP before stimulation [3, 14] was 8.49 ± 2.06 mmHg. For the same compound, the BP after stimulation [3, 15] was 50.09 ± 22.36 mmHg, the BP before stimulation [3, 15] was 76.38 ± 21.11 mmHg and the “Change of BP” value [3, 15] was 26.29 ± 1.54 mmHg. The “Change of ICP” value [3, 15] was 41.74 ± 7.92 mmHg, the “Detumescence Time” value [3, 15] was 64.00 ± 19.37 s and the ICP after stimulation [3, 15] was 50.94 ± 11.12 mmHg. For the same compound, the ICP before stimulation [3, 15] was 9.20 ± 8.79 mmHg, the BP after stimulation ([3]; 6 hours after dosing, Low dose) was 61.78 ± 17.93 mmHg and the BP before stimulation ([3]; 6 hours after dosing, Low dose) was 95.73 ± 18.25 mmHg. The “Change of BP” value ([3]; 6 hours after dosing, Low dose) was 33.95 ± 3.20 mmHg, the “Change of ICP” value ([3]; 6 hours after dosing, Low dose) was 31.38 ± 7.73 mmHg and the “Detumescence Time” value ([3]; 6 hours after dosing, Low dose) was 47.75 ± 11.79 s. The ICP after stimulation ([3]; 6 hours after dosing, Low dose) was 40.36 ± 5.92 mmHg, the ICP before stimulation ([3]; 6 hours after dosing, Low dose) was 8.98 ± 3.06 mmHg and the BP after stimulation [3, 16] was 61.03 ± 12.64 mmHg. For the same compound, the BP before stimulation [3, 16] was 92.91 ± 19.51 mmHg, the “Change of BP” value [3, 16] was 31.88 ± 7.39 mmHg and the “Change of ICP” value [3, 16] was 33.49 ± 8.09 mmHg. For the same compound, the “Detumescence Time” value [3, 16] was 48.00 ± 23.85 s, the ICP after stimulation [3, 16] was 40.21 ± 8.37 mmHg and the ICP before stimulation [3, 16] was 6.72 ± 3.14 mmHg. For the same compound, the BP after stimulation [3, 17] was 52.95 ± 14.12 mmHg, the BP before stimulation [3, 17] was 94.16 ± 9.79 mmHg and the “Change of BP” value [3, 17] was 41.21 ± 11.98 mmHg. The “Change of ICP” value [3, 17] was 43.36 ± 4.90 mmHg, the “Detumescence Time” value [3, 17] was 60.75 ± 24.14 s and the ICP after stimulation [3, 17] was 52.77 ± 2.07 mmHg. The ICP before stimulation [3, 17] was 9.41 ± 3.81 mmHg, the BP after stimulation [3, 18] was 72.34 ± 12.33 mmHg and the BP before stimulation [3, 18] was 108.36 ± 8.89 mmHg. The “Change of BP” value [3, 18] was 36.03 ± 10.90 mmHg, the “Change of ICP” value [3, 18] was 30.65 ± 0.98 mmHg and the “Detumescence Time” value [3, 18] was 23.75 ± 12.84 s. The ICP after stimulation [3, 18] was 43.55 ± 5.05 mmHg, the ICP before stimulation [3, 18] was 12.91 ± 5.02 mmHg and the BP after stimulation [3, 19] was 69.85 ± 12.70 mmHg. For the same compound, the BP before stimulation [3, 19] was 102.18 ± 15.12 mmHg, the “Change of BP” value [3, 19] was 32.33 ± 8.76 mmHg and the “Change of ICP” value [3, 19] was 31.58 ± 5.75 mmHg. The “Detumescence Time” value [3, 19] was 41.25 ± 14.50 s, the ICP after stimulation [3, 19] was 40.00 ± 5.56 mmHg and the ICP before stimulation [3, 19] was 8.41 ± 1.86 mmHg. For the same compound, the “erectile function of the normal rat model, result in words” value ([3]; high, middle, and low doses, Tables 1-9) was “significantly improved the erectile function”, the IC50 [4] was 2.6 µM and 2.64 µM and the IC50 [5] was greater than 10 µM. It also gave an inhibition at 10 µM ([5]; at 10 μM) of 0%, an IC50 [6] greater than 10 µM and an inhibition at 10 µM ([6]; at 10 μM) of 0%. It also gave an IC50 [7] greater than 10 µM, an inhibition at 10 µM ([7]; at 10 μM) of 0% and an IC50 ([8]; PDE4A) greater than 10 µM. For the same compound, the inhibition at 10 µM ([8]; PDE4A1A, at 10 μM) was 0%, the IC50 [9] was 14.7 µM and the IC50 [10] was greater than 10 µM. It also gave an inhibition at 10 µM ([10]; at 10 μM) of 0%.
